Measured values published in US20250161285A1, “BACTERIAL BIOFILM INHIBITORS” (THE RESEARCH INSTITUTE AT NATIONWIDE CHILDREN'S HOSPITAL, priority 2022, published 2025).

What was measured:
[1] = test system: S. Typhimurium ATCC 14028 (JSG210) biofilms; assay: Biofilm inhibition assay (crystal violet staining); assay type: cell-based, Salmonella enterica serovar Typhimurium; conditions: for IC50: inhibition of S. Typhimurium biofilm formation, compound present 24 h, crystal violet OD570, mean ± standard deviation; for anti-biofilm activity (inhibition and dispersion) in words: S. Typhimurium biofilms in vitro; for fold improvement of IC50 versus comparator: 6a vs 4c, 6b vs 4d, 6g vs 4c and 4d, 8i vs 8b
Protocol: Inhibition of biofilm formation is assessed by growing bacteria in a 96-well plate in the absence (control) or presence of test compounds. After 24 hours, the wells are washed to remove planktonic bacteria, and the remaining surface attached bacteria (biofilm) are stained with crystal violet (CV). The wells are then washed again to remove excess CV, and the remaining CV is solubilized with a solution of acetic acid and then quantified by spectrophotometry at 570 nm. A dose response curve is then constructed from which an IC50 value is determined.
(§1) Salmonella biofilm growth and crystal violet staining. […] For biofilm assays, individual bacterial colonies were picked and used to inoculate LB broth for overnight liquid cultures, which were grown at 37° C. with aeration using a rotating drum. […] Biofilm plates were then submerged in dH2O to wash away any remaining non-adherent bacteria and heat fixed (1h, 60° C.). Biofilms were then stained with a 33% crystal violet solution (6 mL PBS, 3.3 mL crystal violet, 333 μL methanol, 333 μL isopropanol) for 5 min. and washed twice by submerging in dH2O before releasing the bound dye with 33% glacial acetic acid. Biofilm growth was then quantified by measuring the optical density of the solubilized dye at 570 nm using a spectrophotometer (Molecular Devices, SpectraMax M5).
(§2) Biofilm Inhibition and Dispersion Assays and IC50/EC50 Determination. […] Biofilms were then grown as described above for a total of 24 h prior to CV staining. […] Biofilms were then incubated for an additional 24 h in the presence of compounds prior to CV staining. IC50/EC50 values were calculated by plotting normalized compound activity (percent biofilm formed and percent remaining, respectively) as a function of log10 compound concentration and fitting a dose response curve (log[inhibitor] vs. normalized response, variable slope).

[2] = test system: S. Typhimurium ATCC 14028 (JSG210) biofilms; assay: Biofilm dispersion assay on pre-formed biofilms (crystal violet staining); assay type: cell-based, Salmonella enterica serovar Typhimurium; conditions: for EC50: 50% dispersion of biofilms established 24 h, then 24 h with compound, crystal violet OD570, mean ± standard deviation; for fold improvement of dispersion activity (EC50) versus comparator: 4d vs 1, 6g vs 4c and 4d, lead compounds vs parent compound
Protocol: as §1, §2

Q: For `Cc1ccccc1CCN1CCC(CN(C)Cc2ccsc2)CC1` [Compound 8g], which IC50 [1] is on record?
A: Its IC50 is 6.3 ± 2.3 µM.

Q: What about the EC50 [2] of the same molecule?
A: Its EC50 is 247 ± 11 µM.

Q: How did the IC50 [1] turn out when `CN(Cc1ccccc1Br)CC1CCN(CCc2ccccc2F)CC1` [Compound 3.1e] was run?
A: The IC50 was 6.5 µM.

Q: And the EC50 [2]?
A: The EC50 was 42 µM.

Q: Which IC50 [1] does the source give for `CN(Cc1ccccc1Cl)CC1CCN(CCc2ccc(Cl)cc2Cl)CC1` [Compound 3.3c] here?
A: Its IC50 is 11.3 ± 7.3 µM.

Q: And the EC50 [2]?
A: The EC50 was 14 ± 10 µM.

Q: Which results are given for `CN(Cc1ccsc1)CC1CCN(CCc2cc(F)cc(F)c2)CC1` [Compound 4e]?
A: anti-biofilm activity (inhibition and dispersion) in words [1]: inactive; IC50 [1]: > 200 µM; EC50 [2]: > 12000 µM

Q: Which “fold improvement of IC50 versus comparator” value [1] does the source give for `CN(Cc1ccsc1)CC1CCN(CCc2ccc(F)c(F)c2)CC1` [Compound 6g] here?
A: The value was “over two-fold”.

Q: What about the IC50 [1] of the same molecule?
A: The IC50 was 3 ± 0.2 µM.

Q: And the EC50 [2]?
A: Its EC50 is 87 ± 13 µM.

Q: What about the “fold improvement of dispersion activity (EC50) versus comparator” value [2] of the same molecule?
A: The value was “over two-fold”.

Q: How did the “anti-biofilm activity (inhibition and dispersion) in words” value [1] turn out when `CNCC1CCN(CCc2ccccc2F)CC1` [Compound 5] was run?
A: Its value is “abrogated activity”.

Q: And the IC50 ([1]; Salmonella enterica)?
A: Its IC50 is over 200 µM.

Q: What about the EC50 ([2]; Salmonella enterica) of the same molecule?
A: The EC50 was over 12000 µM.

Q: `CN(Cc1ccsc1)CC1CCN(Cc2ccc(Br)c(Br)c2)CC1` [Compound 7s] was tested. Which IC50 [1] did it give?
A: The IC50 was 11.9 ± 1.7 µM.

Q: What about the EC50 [2] of the same molecule?
A: Its EC50 is 32 ± 1 µM.

Q: For `CN(Cc1ccsc1)CC1CCN(CCc2ccc(Br)cc2)CC1` [Compound 6d], which IC50 [1] is on record?
A: The IC50 was 3 ± 0.7 µM.

Q: What about the EC50 [2] of the same molecule?
A: Its EC50 is 57 ± 4 µM.

Q: Which results are given for `CN(Cc1ccsc1)CC1CCN(Cc2cccc(Cl)c2)CC1` [Compound 7h]?
A: IC50 [1]: 5.2 ± 1.3 µM; EC50 [2]: 299 ± 21 µM

Q: `CN(Cc1ccc(F)cc1)CC1CCN(CCc2ccccc2F)CC1` [Compound 3.1i] was tested. Which IC50 [1] did it give?
A: The IC50 was 5.5 µM.

Q: What about the EC50 [2] of the same molecule?
A: The EC50 was over 75 µM.

Q: Which results are given for `CN(Cc1ccsc1)CC1CCN(CCc2cc(Br)cc(Br)c2)CC1` [Compound 6f]?
A: IC50 [1]: 3.4 µM; EC50 [2]: 42 µM

Q: How did the IC50 [1] turn out when `CN(Cc1ccccc1)CC1CCN(CCc2ccccc2F)CC1` [Compound 3.1a] was run?
A: Its IC50 is 5 µM.

Q: What about the EC50 [2] of the same molecule?
A: The EC50 was over 75 µM.

Q: How did the IC50 [1] turn out when `CN(Cc1ccsc1)CC1CCN(CCc2ccccc2Cl)CC1` [Compound 4a] was run?
A: The IC50 was 6 ± 1.4 µM.

Q: What about the EC50 [2] of the same molecule?
A: Its EC50 is 232 ± 6 µM.

Q: How did the IC50 [1] turn out when `CN(Cc1ccsc1)CC1CCN(CCc2ccc(F)cc2)CC1` [Compound 4d] was run?
A: Its IC50 is 16.8 ± 3.4 µM.

Q: What about the EC50 [2] of the same molecule?
A: Its EC50 is 235 µM.

Q: What about the “fold improvement of dispersion activity (EC50) versus comparator” value [2] of the same molecule?
A: The value was “ca. 3.5”.

Q: `COc1ccccc1CCN1CCC(CN(C)Cc2ccsc2)CC1` [Compound 4f] was tested. Which IC50 [1] did it give?
A: Its IC50 is 16.9 ± 5.2 µM.

Q: What about the EC50 [2] of the same molecule?
A: Its EC50 is 11760 ± 77 µM.

Q: Which IC50 [1] does the source give for `CN(Cc1ccsc1)CC1CCN(Cc2ccccc2)CC1` [Compound 6k] here?
A: The IC50 was 26.7 ± 1.2 µM.

Q: What about the EC50 [2] of the same molecule?
A: The EC50 was over 12000 µM.

Q: Which “fold improvement of IC50 versus comparator” value [1] does the source give for `CN(Cc1ccsc1)CC1CCN(CCc2ccc(Cl)cc2)CC1` [Compound 6b] here?
A: Its value is “over four-fold”.

Q: And the IC50 [1]?
A: Its IC50 is 3 ± 1.4 µM.

Q: And the EC50 [2]?
A: The EC50 was 69 ± 4 µM.

Q: How did the IC50 [1] turn out when `CN(Cc1ccsc1)CC1CCN(Cc2ccccc2Cl)CC1` [Compound 6j] was run?
A: The IC50 was 2.7 ± 0.7 µM.

Q: What about the EC50 [2] of the same molecule?
A: Its EC50 is 1810 ± 176 µM.

Q: Which IC50 [1] does the source give for `CN(Cc1cccc(Cl)c1Cl)CC1CCN(CCc2ccc(Cl)cc2Cl)CC1` [Compound 3.3i] here?
A: The IC50 was 6.5 ± 2.5 µM.

Q: What about the EC50 [2] of the same molecule?
A: The EC50 was 8 ± 4 µM.

Q: What does the source list for `CN(Cc1cccc(Cl)c1)CC1CCN(CCc2ccccc2F)CC1` [Compound 3.1h]?
A: IC50 [1]: 5.6 µM; EC50 [2]: > 75 µM

Q: Which IC50 [1] does the source give for `CN(Cc1ccsc1)CC1CCN(Cc2ccc(Br)cc2)CC1` [Compound 7l] here?
A: The IC50 was 8.5 ± 1.8 µM.

Q: And the EC50 [2]?
A: The EC50 was 127 ± 13 µM.

Q: `CN(Cc1ccccn1)CC1CCN(CCc2ccccc2F)CC1` [Compound 3.8a] was tested. Which IC50 [1] did it give?
A: The IC50 was over 20 µM.

Q: And the EC50 [2]?
A: Its EC50 is over 50 µM.

Q: What does the source list for `CN(Cc1ccsc1)CC1CCN(CCc2cccc(F)c2)CC1` [Compound 4c]?
A: IC50 [1]: 6.9 ± 0.1 µM; EC50 [2]: 388 ± 19 µM

Q: Which results are given for `CN(Cc1ccsc1)CC1CCN(CCc2cccc(Cl)c2)CC1` [Compound 6a]?
A: fold improvement of IC50 versus comparator [1]: over two-fold; IC50 [1]: 2 µM; EC50 [2]: 135 ± 12 µM

Q: With `CN(Cc1ccsc1)CC1CCN(CCc2ccc(Cl)cc2Cl)CC1` [Compound 7c] as the molecule, how does the IC50 [1] read?
A: Its IC50 is 2.5 ± 0.5 µM.

Q: And the EC50 [2]?
A: The EC50 was 22 ± 2 µM.

Q: With `CN(Cc1ccsc1)CC1CCN(Cc2ccccc2I)CC1` [Compound 8d] as the molecule, how does the IC50 [1] read?
A: Its IC50 is 5.4 ± 0.5 µM.

Q: And the EC50 [2]?
A: Its EC50 is 79 ± 5 µM.

Q: With `CN(Cc1cccc2ccccc12)CC1CCN(CCc2ccccc2F)CC1` [Compound 3.4a] as the molecule, how does the IC50 [1] read?
A: The IC50 was 4.2 ± 2.9 µM.

Q: What about the EC50 [2] of the same molecule?
A: The EC50 was 12 ± 8 µM.

Q: With `CN(Cc1ccsc1)CC1CCN(CCCc2ccccc2)CC1` [Compound 6n] as the molecule, how does the IC50 [1] read?
A: Its IC50 is 78.1 ± 3.7 µM.

Q: And the EC50 [2]?
A: Its EC50 is over 12000 µM.

Q: `CN(Cc1ccsc1)CC1CCN(CCc2cccc(I)c2)CC1` [Compound 8b] was tested. Which IC50 [1] did it give?
A: Its IC50 is 4 ± 0.7 µM.

Q: What about the EC50 [2] of the same molecule?
A: The EC50 was 44 ± 2 µM.

Q: `CN(Cc1ccsc1)CC1CCN(Cc2ccccc2F)CC1` [Compound 6i] was tested. Which IC50 [1] did it give?
A: Its IC50 is 8.8 ± 0.8 µM.

Q: What about the EC50 [2] of the same molecule?
A: The EC50 was 125 ± 6 µM.

Q: For `CN(Cc1ccsc1)CC1CCN(CCc2ccccc2I)CC1` [Compound 8a], which IC50 [1] is on record?
A: Its IC50 is 4.3 µM.

Q: And the EC50 [2]?
A: The EC50 was 60 ± 2 µM.

Q: What does the source list for `CN(Cc1ccsc1)CC1CCN(CCc2ccccc2)CC1` [Compound 4g]?
A: IC50 [1]: 21.2 ± 2.6 µM; EC50 [2]: > 12000 µM
